Several values for one entry are separate records, joined by “and”; a condition that tells them apart may be missing. Equal entries are not always repeated. Where two headings read alike, the source gives them in different places.
What was measured:
SFRP-1 [1] = molecular target: T1, SFRP-1 (Homo sapiens, UniProt Q8N474); assay: Fluorescence polarization binding assay (competitive displacement of a probe compound from SFRP-1); details: fluorescence anisotropy, 45 nM SFRP-1, 20 nM probe;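 note: test compound competes with a fluorescent probe held by SFRP-1, seen as a drop in probe anisotropy after incubation in darkness, with anisotropy as function of rising compound dose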
T1 sequence (Q8N474 32-314): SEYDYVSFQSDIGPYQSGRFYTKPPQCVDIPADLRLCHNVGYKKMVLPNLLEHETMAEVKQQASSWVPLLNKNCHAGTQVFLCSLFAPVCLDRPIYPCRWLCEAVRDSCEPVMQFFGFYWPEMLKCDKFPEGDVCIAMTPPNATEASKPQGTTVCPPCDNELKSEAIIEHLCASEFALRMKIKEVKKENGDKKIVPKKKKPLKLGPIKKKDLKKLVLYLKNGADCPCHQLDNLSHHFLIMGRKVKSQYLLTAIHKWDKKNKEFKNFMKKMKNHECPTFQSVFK

SFRP-1 [2] = molecular target: T1, SFRP-1; assay: Cell-based assay for in vitro measurement of SFRP-1/SARP2 antagonist activity (U2OS cells co-transfected with 16x TCF-tk-Luciferase reporter, Wnt and hSFRP-1); details: for fold induction at 10 µM / fold induction at 15 µM: U2OS; for fold induction at 10 µM: read-out: Fold Induction with SFRP-1, U2OS cells, single dose 10 μM, luciferase reporter, fold induction over SFRP-1 control;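 for all read-outs here: U2OS cells co-transfected with a TCF-tk luciferase reporter, a Wnt vector, hSFRP-1 or empty vector and CMV-βgal, luciferase luminescence read in cell lysates alongside βgal activity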
[3] = read-out: Fold Induction with SFRP-1, Conc 15 μM, with SFRP-1, fold induction over SFRP-1 control, single dose
[4] = read-out: Fold Induction without SFRP-1, Conc 15 μM, without SFRP-1, single dose
[5] = read-out: Fold Induction with SFRP-1, Conc 15 μM, single dose, luciferase reporter, fold induction over SFRP-1 control, cells with SFRP-1
[6] = read-out: Fold Induction without SFRP-1, Conc 15 μM, single dose, luciferase reporter, cells without SFRP-1 (specificity control)

Structure (SMILES) | IC50 (SFRP-1 [1]) | EC50 (SFRP-1 [2]) | fold induction at 10 µM (SFRP-1 [2]) | fold induction at 15 µM (SFRP-1 [2]; [3]) | fold induction at 15 µM (SFRP-1 [2]; [4]) | fold induction at 15 µM (SFRP-1 [2]; [5]) | fold induction at 15 µM (SFRP-1 [2]; [6])
O=S(=O)(NC1CCOCC1)c1cc(S(=O)(=O)c2ccccc2)ccc1OC(F)(F)F [Example 662, 5-(phenylsulfonyl)-N-(tetrahydro-2H-pyran-4-yl)-2-(trifluoromethoxy)benzenesulfonamide] | 4000 nM | 17600 nM | 3.3 |  |  |  | 
Cc1ccc(S(=O)(=O)c2ccccc2)cc1S(=O)(=O)NCCn1ccnc1 [Example 314, N-[2-(1H-imidazol-1-yl)ethyl]-2-methyl-5-(phenylsulfonyl)benzenesulfonamide] | 1200 nM |  |  | 3.3 | 1.3 |  | 
C[C@@H](NS(=O)(=O)c1cc(S(=O)(=O)c2ccccc2)ccc1C(F)(F)F)[C@@H](O)c1ccccc1 [Example 686, N-[(1R,2S)-2-hydroxy-1-methyl-2-phenylethyl]-5-(phenylsulfonyl)-2-(trifluoromethyl)benzenesulfonamide] | 500 nM | 1750 nM | 3.5 |  |  |  | 
CC(C)(C)OC(=O)N1CCC(NS(=O)(=O)c2cc(S(=O)(=O)c3ccc(C(=O)O)cc3)ccc2C(F)(F)F)CC1 [Example 1066, 4-{[3-({[1-(tert-butoxycarbonyl)piperidin-4-yl]amino}sulfonyl)-4-(trifluoromethyl)phenyl]sulfonyl}benzoic acid] | 240 nM | 615 nM |  |  |  |  | 
Cc1ccc(S(=O)(=O)c2ccc(N[C@H](C)C3CCCCC3)cc2)cc1S(=O)(=O)NCCCn1ccnc1 [Example 372, 5-[(4-{[(1R)-1-cyclohexylethyl]amino}phenyl)sulfonyl]-N-[3-(1H-imidazol-1-yl)propyl]-2-methylbenzenesulfonamide] | 2000 nM and 2100 nM |  |  | 2.2 | 0.9 |  | 
COC(=O)C1CCC(NS(=O)(=O)c2cc(S(=O)(=O)c3ccccc3)ccc2C(F)(F)F)CC1 (stereo not drawn) [Example 946, methyl 4-({[5-(phenylsulfonyl)-2-(trifluoromethyl)phenyl]sulfonyl}amino)cyclohexanecarboxylate] | 500 nM | 1460 nM | 3 |  |  |  | 
O=C(c1cc(Cl)cnc1Cl)N1CCC(NS(=O)(=O)c2cc(S(=O)(=O)c3ccccc3)ccc2C(F)(F)F)CC1 [Example 977, N-{1-[(2,5-dichloropyridin-3-yl)carbonyl]piperidin-4-yl}-5-(phenylsulfonyl)-2-(trifluoromethyl)benzenesulfonamide] | 180 nM | 1100 nM |  |  |  |  | 
CC(C)c1ccc(S(=O)(=O)c2ccccc2)cc1S(=O)(=O)NC1CCOCC1 [Example 670, 2-isopropyl-5-(phenylsulfonyl)-N-(tetrahydro-2H-pyran-4-yl)benzenesulfonamide] | 800 nM | 2830 nM | 3.2 |  |  |  | 
CCc1ccc(S(=O)(=O)c2ccccc2)cc1S(=O)(=O)NC1CCN(C(=O)OC(C)(C)C)CC1 [Example 909, tert-butyl 4-({[2-ethyl-5-(phenylsulfonyl)phenyl]sulfonyl}amino)piperidine-1-carboxylate] | 1000 nM | 2580 nM | 2.3 |  |  |  | 
O=S(=O)(NCCC1CCNCC1)c1cc(S(=O)(=O)c2ccccc2)ccc1C(F)(F)F [Example 940, 5-(phenylsulfonyl)-N-(2-piperidin-4-ylethyl)-2-(trifluoromethyl)benzenesulfonamide] | 1100 nM | 2280 nM | 4.1 |  |  |  | 
CCc1ccc(S(=O)(=O)c2ccc(F)cc2)cc1S(=O)(=O)NCCn1ccnc1 [Example 297, 2-ethyl-5-[(4-fluorophenyl)sulfonyl]-N-[2-(1H-imidazol-1-yl)ethyl]benzenesulfonamide] | 400 nM |  |  | 4.3 | 1.4 |  | 
Cc1ccc(S(=O)(=O)c2ccc(F)cc2)cc1S(=O)(=O)NC1CCN(Cc2ccccc2)CC1 [Example 574, N-(1-benzylpiperidin-4-yl)-5-[(4-fluorophenyl)sulfonyl]-2-methylbenzenesulfonamide] | 6000 nM |  |  |  |  | 2.1 | 1.2
Cc1ccc(S(=O)(=O)c2cc(Cl)cc(Cl)c2)cc1S(=O)(=O)NCCCn1ccnc1 [Example 344, 5-[(3,5-dichlorophenyl)sulfonyl]-N-[3-(1H-imidazol-1-yl)propyl]-2-methylbenzenesulfonamide] | 1400 nM |  |  | 2.2 | 1 |  | 
CC(C)c1ccc(S(=O)(=O)c2ccccc2)cc1S(=O)(=O)NC1CCNCC1 [Example 924, 2-isopropyl-5-(phenylsulfonyl)-N-piperidin-4-ylbenzenesulfonamide] | 1800 nM | 1920 nM | 2.5 |  |  |  | 
Cc1cc(C(=O)N2CCC(NS(=O)(=O)c3cc(S(=O)(=O)c4ccccc4)ccc3C(F)(F)F)CC2)cc(Cl)n1 [Example 856, N-[1-(2-chloro-6-methylisonicotinoyl)piperidin-4-yl]-5-(phenylsulfonyl)-2-(trifluoromethyl)benzenesulfonamide] | 100 nM | 360 nM | 4.2 |  |  |  | 
O=C(O)CN1CCC(CNS(=O)(=O)c2cc(S(=O)(=O)c3ccccc3)ccc2C(F)(F)F)CC1 [Example 941, {4-[({[5-(phenylsulfonyl)-2-(trifluoromethyl)phenyl]sulfonyl}amino)methyl]piperidin-1-yl}acetic acid] | 700 nM | 1340 nM | 3.2 |  |  |  | 
CC(C)c1ccc(S(=O)(=O)c2ccc(NCCC#N)cc2)cc1S(=O)(=O)NCC1CCOCC1 [Example 536, 5-({4-[(2-cyanoethyl)amino]phenyl}sulfonyl)-2-isopropyl-N-(tetrahydro-2H-pyran-4-ylmethyl)benzenesulfonamide] | 400 nM |  |  |  |  | 3 | 1.2
Cc1ccc(S(=O)(=O)c2ccccc2)cc1S(=O)(=O)NC1CCN(S(=O)(=O)c2cn(C)cn2)CC1 [Example 481, 2-methyl-N-{1-[(1-methyl-1H-imidazol-4-yl)sulfonyl]piperidin-4-yl}-5-(phenylsulfonyl)benzenesulfonamide] | 1200 nM |  |  | 1.8 | 1 |  | 
CCCc1ccc(S(=O)(=O)c2ccccc2)cc1S(=O)(=O)NCCC1CCOCC1 [Example 553, 5-(Phenylsulfonyl)-2-propyl-N-[2-(tetrahydro-2H-pyran-4-yl)ethyl]benzenesulfonamide] | 3000 nM |  |  |  |  | 2.5 | 1.1
O=C(O)COc1ccc2c(c1)CC(NS(=O)(=O)c1cc(S(=O)(=O)c3ccccc3)ccc1C(F)(F)F)C2 (stereo not drawn) [Example 1031, {[2-({[5-(phenylsulfonyl)-2-(trifluoromethyl)phenyl]sulfonyl}amino)-2,3-dihydro-1H-inden-5-yl]oxy}acetic acid] | 20 nM | 85 nM |  |  |  |  | 
CN(C)c1ccccc1S(=O)(=O)c1ccc(C(F)(F)F)c(S(=O)(=O)NC2CCNCC2)c1 [Example 862, 5-{[2-(dimethylamino)phenyl]sulfonyl}-N-piperidin-4-yl-2-(trifluoromethyl)benzenesulfonamide] | 1300 nM |  | 4 |  |  |  | 
CC(C)(C)OC(=O)NCCCNS(=O)(=O)c1cc(S(=O)(=O)c2ccccc2)ccc1C(F)(F)F [Example 988, tert-butyl [3-({[5-(phenylsulfonyl)-2-(trifluoromethyl)phenyl]sulfonyl}amino)propyl]carbamate] | 1100 nM | 1890 nM |  |  |  |  | 
Cc1ccc(S(=O)(=O)c2ccccc2)cc1S(=O)(=O)NC1CCN(C(=O)CN(C)C)CC1 [Example 486, N-[1-(N,N-dimethylglycyl)piperidin-4-yl]-2-methyl-5-(phenylsulfonyl)benzenesulfonamide] | 5000 nM |  |  |  |  | 2.1 | 1.1
C[S+]([O-])CCC(=O)N1CCC(NS(=O)(=O)c2cc(S(=O)(=O)c3ccccc3)ccc2C(F)(F)F)CC1 (stereo not drawn) [Example 1054, N-{1-[3-(methylsulfinyl)propanoyl]piperidin-4-yl}-5-(phenylsulfonyl)-2-(trifluoromethyl)benzenesulfonamide] | 40 nM | 717 nM |  |  |  |  | 
O=S(=O)(NC1CCOCC1)c1cc(S(=O)(=O)c2ccc(F)cc2)ccc1C(F)(F)F [Example 817, 5-[(4-fluorophenyl)sulfonyl]-N-(tetrahydro-2H-pyran-4-yl)-2-(trifluoromethyl)benzenesulfonamide] | 300 nM | 1140 nM | 3.3 |  |  |  | 
COCC(=O)N1CCC(NS(=O)(=O)c2cc(S(=O)(=O)c3ccc(F)cc3)ccc2C(C)C)CC1 [Example 519, 5-[(4-fluorophenyl)sulfonyl]-2-isopropyl-N-[1-(methoxyacetyl)piperidin-4-yl]benzenesulfonamide] | 800 nM |  |  |  |  | 3 | 0.9
COc1ccccc1C(=O)N1CCC(NS(=O)(=O)c2cc(S(=O)(=O)c3ccccc3)ccc2C(F)(F)F)CC1 [Example 703, N-[1-(2-methoxybenzoyl)piperidin-4-yl]-5-(phenylsulfonyl)-2-(trifluoromethyl)benzenesulfonamide] | 160 nM | 1200 nM | 4.8 |  |  |  | 

Source: patent US20060276464A1, “Diarylsulfone sulfonamides and use thereof” (Wyeth, priority 2005, published 2006)
